Laboratory results: patent US20090156687A1, “Fab I and inhibition of apicomplexan parasites” (priority 2003, published 2009)
In brackets after ≈: the same amount, converted by molar mass. Where two headings read alike, the source gives them in different places.

Legend:
Cryptosporidia = assay type: cell-based
P. falciparum [1] = test: microbe, parasite or virus in culture; assay type: cell-based, Plasmodium falciparum; details: for IC50: Plasmodium falciparum
Method: Because Fab I was located, the effects of triclosan on Plasmodium falciparum in vitro were investigated. For P. falciparum, the in vitro assays (Milhous et al., 1985; Oduola et al., 1988) were conducted using a modification of the semiautomated microdilution technique for assessing anti-folate antagonists. Instead of dialysed human plasma, 10% Albumax I (Gibco BRL), a serum-free substitute, was used to supplement the RPMI 1640 medium. All test compounds were dissolved in DMSO and diluted 400-fold into complete medium before serial dilution over 11 concentrations. Incubation was at 37° C. in 5% O2, 5% CO2 and 90% N2 for 48 h. [3H]-Hypoxanthine incorporation was measured as described previously (Milhous et al, 1985; Oduola et al, 1988).
P. falciparum. The in vitro assays (Oduala et al., 1988; Milhous et al., 1985) were conducted using a modification of the semiautomated microdilution technique for assessing antifolate antagonists. Instead of dialysed human plasma, 10% Albumaz I (Gibco BRL), a serum-free substitute, was used to supplement the RPMI 16-40 media. All test compounds were dissolved in DMSO and diluted 400-fold into complete media before serial dilution over 11 concentrations. Incubation was at 37° C. in 5% O2, 5% CO2 and 90% N2 for 48h, [3H]-Hypoxanthine incorporation was measured as described previously (13, 14).

T. gondii [2] = test: T. gondii growth inhibition in human foreskin fibroblasts, 3H uracil uptake; assay type: cell-based, Toxoplasma gondii; details: for percentage inhibition of T. gondii uracil uptake: 125 nanograms per ml
Method: For T. gondii, growth inhibition was assessed over a 4-day period as described previously (Mack et al., 1984; Roberts et al., 1998; Zuther et al., 1999) using human foreskin fibroblasts (HFF) infected with 105 tachyzoites of the RH strain of T. gondii. The assays are based on microscopic visual inspection of infected and inhibitor treated cultures, and on quantitation of nucleic acid synthesis of the parasite by measuring uptake of 3H uracil into the parasite's nucleic acid. Uracil is not utilized by mammalian cells. Parasites present as tachyzoites (RH, Ptg., a clone derived from the Me49 strain), bradyzoites (Me49), and R5 mutants (mixed tachyzoites/bradyzoites of the Me49 strain that can be stage switched by culture conditions) (Bohne et al., 1993; Soete et al., 1994; Tomovo and Boothroyd, 1995; Weiss et al., 1992) are suitable for assay systems used to study effectsof inhibitors. Only the RH strain tachyzoites, cultured for up to 72 hours, had been used in previously reported assays. The use of Me49, Ptg, and R5 mutants are unique aspects of the methods used in these assays in this invention.
(§1) In these assays toxicity of a candidate inhibitor was assessed by its ability to prevent growth of human foreskin fibroblasts (HFF) after 4 days and after 8 days as measured by tritiated thymidine uptake and microscopic evaluation. Confluent monolayers of HFF were infected with tachyzoites and bradyzoites. Inhibitor was added one hour later. Non-toxic doses were used in parasite growth inhibition assays. Parasite growth was measured by ability to incorporate tritiated uracil during the last 48 hours of culture.
T. gondii in vitro. Growth inhibition was assessed over a 4-day period as described previously by Roberts et al., 1998; Zuther et al., 1999; and Mack et al., 1984, all incorporated by reference, using human foreskin fibroblasts (HFF) infected with 105 tachyzoites of the RH strain of T. gondii. Uptake of 3H uracil was determined. Evaluation of slides of preparations containing HFF, Toxoplasma and inhibitors were made.

[3] = tested on: human foreskin fibroblasts (HFF); test: Toxicity to host cells, tritiated thymidine uptake and microscopic evaluation; assay type: cell-based; details: at concentrations effective against T. gondii
Method: as §1

P. berghei = P. berghei murine model; assay type: in vivo; details: subcutaneously, 3 or 38 mg/kg
P. falciparum FAB I = P. falciparum FAB I (Plasmodium falciparum, UniProt Q9BH77); test: Fab I enzyme activity (NADH dependent); assay type: biochemical; details: purified P. falciparum FAB I
P. falciparum [4] = test: In vitro synergy with cerulein; parameters: species or system Plasmodium falciparum; details: cerulein (inhibitor of Fab F, B, H) with triclosan
T. gondii [5] = details: literature (Waller et al., 1998; Zuther et al., 1999); cited from earlier work
EPSP synthase = EPSP synthase enzyme activity; assay type: biochemical, T. gondii; details: 1 mM
[6] = 48 h, read-out: IC 50 when cultured with P Falciparum, strain TM91C234, 48 h
[7] = 48 h, read-out: IC 50 when cultured with P Falciparum, strain W2 (chloroquine and pyrimethamine resistant), 48 h
[8] = TM90C2A, 48 h, read-out: IC 50 when cultured with P Falciparum, strain TM90C2A (chloroquine and mefloquine resistant, admission isolate), 48 h
[9] = TM90C2B, 48 h, read-out: IC 50 when cultured with P Falciparum, strain TM90C2B (recrudescent isolate, atovaquone resistant), 48 h

P. falciparum FAB I, sequence (Q9BH77 entry or part of it): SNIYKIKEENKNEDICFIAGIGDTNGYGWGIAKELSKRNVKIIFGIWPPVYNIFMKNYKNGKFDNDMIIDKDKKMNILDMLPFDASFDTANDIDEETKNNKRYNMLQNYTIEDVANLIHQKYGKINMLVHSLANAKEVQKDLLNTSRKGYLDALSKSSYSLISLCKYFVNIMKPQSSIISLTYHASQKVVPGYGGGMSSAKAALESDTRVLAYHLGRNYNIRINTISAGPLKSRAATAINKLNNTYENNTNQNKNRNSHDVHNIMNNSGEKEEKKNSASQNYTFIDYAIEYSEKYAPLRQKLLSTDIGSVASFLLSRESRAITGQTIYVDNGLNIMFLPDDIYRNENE

## O=C(O)CC[N+](=O)[O-] [3NPA]
Cryptosporidia
  effect on Cryptosporidia: inhibited

## NC1C=CC=C(C(=O)O)C1 (racemic) [gabaculine]
Cryptosporidia
  effect on Cryptosporidia: inhibitory effects

## Oc1cc(Cl)ccc1Oc1ccc(Cl)cc1Cl [Triclosan, 5-chloro-2-[2,4 dichloropheoxyl] phenol]
P. falciparum [1]; 48 h, strain TM91C234, 48 h, read-out: IC 50 when cultured with P Falciparum
  IC50: 1.8 µg/mL (≈ 6.22 µM)
P. falciparum [1]; TM90C2A, 48 h, read-out: IC 50 when cultured with P Falciparum
  IC50: 1.89 µg/mL (≈ 6.53 µM)
P. falciparum [1]; TM90C2B, 48 h, strain TM90C2B (recrudescent isolate, atovaquone resistant), 48 h, read-out: IC 50 when cultured with P Falciparum
  IC50: 1.33 µg/mL (≈ 4.59 µM)
P. falciparum [1]; W2, strain W2, text value, read-out: IC50 against pyrimethamine resistant P. falciparum (W2)
  IC50: 0.15 µg/mL (≈ 0.518 µM)
P. falciparum [1]; range over strains, read-out: IC50, growth and survival of P. falciparum
  IC50: 0.15 to 2 µg/mL (≈ 0.518 to 6.91 µM)
T. gondii [2]; day 1, separate experiment
  percentage inhibition of T. gondii uracil uptake: 20%
T. gondii [2]; day 4, separate experiment
  percentage inhibition of T. gondii uracil uptake: 72%
T. gondii [2]; RH strain in HFF, 4 days after infection
  IC50, T. gondii uracil uptake: 62 nanograms/ml
T. gondii [2]; Toxoplasma gondii, Fibroblast, 96 h, read-out: IC50, T. gondii uracil uptake
  IC50: 0.062 µg/mL (≈ 0.214 µM)
[3]
  toxicity to host cells / host cells uptake of thymidine: no toxicity
[3]; listed as triclosan
  toxicity to host cells / host cells uptake of thymidine: no inhibitory effect
P. berghei
  death: prevented death
  parasitemia: cleared parasitemia
  toxicity in P. berghei murine model: nontoxic
P. falciparum FAB I
  FAB I enzyme activity: inhibited

## C/C=C/C/C=C/CCC(=O)[C@H]1O[C@H]1C(N)=O
P. falciparum [4]
  synergy in vitro: Synergy

## Oc1cccc2cccnc12 [8-OH-quinoline]
Cryptosporidia
  effect on Cryptosporidia: inhibitory effects

## OC(c1cc(C(F)(F)F)nc2c(C(F)(F)F)cccc12)C1CCCCN1 (stereo not shown) [Mefloquine]
P. falciparum [1]; 48 h, read-out: IC 50 when cultured with P Falciparum
  IC50: 0.0053 µg/mL (≈ 0.014 µM)
P. falciparum [1]; [6]
  IC50: 0.0196 µg/mL (≈ 0.0518 µM)
P. falciparum [1]; [7]
  IC50: 0.002 µg/mL (≈ 0.00529 µM)
P. falciparum [1]; [8]
  IC50: 0.0245 µg/mL (≈ 0.0648 µM)
P. falciparum [1]; [9]
  IC50: 0.0193 µg/mL (≈ 0.051 µM)

## C=C/C(C)=C/[C@@]1(C)SC(=O)C(C)=C1O [thiolactomycin]
T. gondii [5]
  growth of T. gondii in vitro: restrict the growth

## CCN(CC)CCCC(C)Nc1ccnc2cc(Cl)ccc12 (stereo not shown) [Chloroquine]
P. falciparum [1]; 48 h, read-out: IC 50 when cultured with P Falciparum, strain D6 (chloroquine and pyrimethamine susceptible), 48 h
  IC50: 0.0038 µg/mL (≈ 0.0119 µM)
P. falciparum [1]; [6]
  IC50: 0.0461 µg/mL (≈ 0.144 µM)
P. falciparum [1]; [7]
  IC50: 0.162 µg/mL (≈ 0.508 µM)
P. falciparum [1]; [8]
  IC50: 0.0573 µg/mL (≈ 0.179 µM)
P. falciparum [1]; [9]
  IC50: 0.0827 µg/mL (≈ 0.259 µM)
P. falciparum [1]; W2, read-out: IC50 against pyrimethamine resistant P. falciparum (W2), strain W2, text value
  IC50: 0.16 µg/mL (≈ 0.5 µM)

## O=C(O)CNCP(=O)(O)O [NPMG]
P. falciparum [1]; P. falciparum
  in vitro growth of asexual erythrocytic forms: inhibition
T. gondii [2]; RH strain
  uptake of tritiated uracil by tachyzoites: inhibited
EPSP synthase
  EPSP synthase enzyme activity: inhibition
Cryptosporidia
  effect on Cryptosporidia: inhibitory effects

## O=C(NO)c1ccccc1O [SHAM]
Cryptosporidia
  effect on Cryptosporidia: inhibitory effects

## C[C@@H](Oc1ccc(Oc2ncc(Cl)cc2F)cc1)C(=O)O [clodinafop]
T. gondii [2]; 1 micromolar
  inhibition of T. gondii: ionhibited
